Series [1] in a line: Pharmacokinetic (PK) study in rats, plasma and liver levels by LC/MS-MS. The series is classed as in vivo, SD rats. To be noted: for oral bioavailability: rats. On the procedure:
Pharmacokinetic (PK) study of ester prodrug (FDURPAE), parent drug (FDUR) and prodrug in sodium salt form (FDURPAN) in rats were completed according to following procedure.
SD rats (250-300 g, male, N=24) were used for FDURPAE, FDUR and FDURPAN, purchased from SLAC Laboratory Animal Co. LTD Qualification No.: SCXK SH 2007-0005, 13264. FDURPAE (0.096 mmol, 52.17 mg/kg) and FDUR (0.096 mmol, 23.7 mg/kg) were dosed orally by gavage with a single dose of each compound to rats in a volume of 5 mL/kg in 0.5% carboxymethylcellulose sodium. FDURPAN (0.096 mmol, 50.24 mg) was dosed both orally or iv by gavage with a single dose to rats in a volume of 5 mL/kg in water. The animal was restrained manually at designated time points. Approximately 500 μL of blood/time point was collected into K2EDTA tube via cardiac puncture for terminal bleeding under anesthesia with Isoflurane. Blood samples were put on ice after collection and then centrifuged to obtain plasma sample (2000 g, 5 min, 4° C.) within 15 minutes of sampling. […] All the plasma samples were immediately quenched for protein precipitation. Liver samples were removed at designated time points by first sacrificing the animal by CO2 inhalation, then perfusing the liver with ice cold saline and removing the left middle liver lobe, which was then snap frozen in dry ice. Liver samples were stored at approximately −80° C. until analysis. The liver homogenate was then processed for further analysis by LC/MS-MS. Plasma and liver samples were stored at approximately −80° C. until analysis.
Concentrations of parent drug and possible metabolites in both plasma and liver including FDURPAN (stable metabolite of FDURPAE), FDUR, 5FU and FDUR-MP were determined by LC/MS-MS, respectively.

The subject of series [2] is HCV subgenomic replicon. The series can be described thus: HCV replicon assay (Huh-7, luciferase reporter). The series is classed as cell-based. How it is done:
Anti-Hepatitis C Activity. Anti-HCV activity and cytotoxicity of compounds disclosed herein were assayed following the method described in WO 2007/027248.
The anti-HCV activity and toxicity of the exemplary compounds can be tested in two biological assays—a cell-based HCV replicon assay and cytotoxicity assay (WO 2007/027248).
A human hepatoma cell line (Huh-7) containing replicating HCV subgenomic replicon with a luciferase reporter gene (luc-ubi-neo) was used to evaluate anti-HCV activity of the compounds. In this assay, level of luciferase signal correlates with the viral RNA replication directly. The HCV replicon-reporter cell line (NK/luc-ubi-neo) was cultured in DMEM medium supplemented with 10% fetal bovine serum and 0.5 mg/ml Geneticin (G418). Cells were maintained in a subconfluent state to ensure high levels of HCV replicon RNA synthesis.
To evaluate the antiviral activity of compounds, serial dilutions were prepared with concentrations ranging from 0.14 to 300 μM. Diluted compounds were transferred to a 96-well plate followed by the addition of replicon cells (6000 cells per well). Cells were incubated with the compounds for 48 h after which luciferase activity was measured. Reduction of luciferase signal reflected the decrease of HCV replicon RNA in the treated cells and used to determine the EC50 value (concentration which yielded a 50% reduction in luciferase activity).

As to `Cc1ccccc1CO[P@](=O)(N[C@H](C)C(=O)OC(C)C)OCC1OC(n2cc(F)c(=O)[nH]c2=O)CC1O` (single isomer, unassigned) [FDURPAE (F5)], in series [1] (rat, oral administration), the “detection of active drug FDUR-MP in plasma” value was “could not be detected” and the “detection of metabolite 5FU in plasma” value is reported as “could not be detected”. Moreover, in series [1], the oral bioavailability entry is “significantly improved oral bioavailability”. For `CC1(F)C(O)C(COP(=O)(NCc2ccccc2)OCc2ccccc2)OC1n1ccc(=O)[nH]c1=O` (stereo not drawn) [F2], the anti-HCV activity entry in series [2] is reported as “did not show any anti-HCV activity”. The same measure, in the same setting: under `Cc1ccccc1COP(=O)(NCc1ccccc1)OCC1OC(n2ccc(=O)[nH]c2=O)C(C)(F)C1O` (stereo not drawn) [F3] stands “potent anti-HCV activity”.

With `Cc1ccccc1COP(=O)(NCc1ccccc1)OCC1OC(n2cc(F)c(=O)[nH]c2=O)CC1O` (stereo not drawn) [F4], the oral bioavailability result in series [1] is “very low”.

For the origin of these results see US9156874B2, “Double-liver-targeting phosphoramidate and phosphonoamidate prodrugs” (Nanjing Molecular Research, Inc., priority 2011, dated 2015).
